Tests used:
[1] = Cytotoxicity evaluation, CellTiter-Blue Cell Viability Assay; type: cell-based; conditions: human, Zluc cells (HCV replicon)
Protocol: For cytotoxicity evaluation, Zluc cells were treated with compound as described herein, and cell viability was monitored using the CellTiter-Blue Cell Viability Assay (Promega) by adding 20 μL of the assay solution to each well. The plates were then incubated at 37° C./5% CO2 for at least 3 hours. Fluorescence was detected in plates using excitation and emission wavelengths of 560 and 590 nm, respectively, in a Victor^3 V 1420 multilabel counter (Perkin Elmer) and CC50 values were determined using Microsoft Excel and XLfit 4.1 software.

[2] = system: HCV genotype 1b replicon in Huh-7-derived cell line (Zluc); experiment: HCV Replicon Assay (luciferase reporter); type: cell-based; conditions: Hepatitis C virus; Zluc cells, 72 hours of incubation, luciferase readout
Protocol: Huh-7-derived cell line (Zluc) that harbors an HCV genotype 1b replicon and a luciferase reporter gene was grown in Dulbecco's Modified Eagle Medium (DMEM) supplemented with 10% fetal bovine serum, 2 mM GlutaMAX, 1% MEM nonessential amino acids, 100 IU/mL penicillin, 100 μg/mL streptomycin, and 0.5 mg/mL Geneticin® (G418). For dose response testing the cells were seeded in 96-well plates at 7.5×10^3 cells per well in a volume of 50 μL, and incubated at 37° C./5% CO2. Drug solutions were made up freshly in Huh-7 media as 2× stocks. Ten additional 5-fold dilutions were prepared from these stocks in DMEM without G418. At least three hours after Zluc cells were seeded, drug treatment was initiated by adding 50 μL of drug dilutions to the plates in duplicate. Final concentrations of drug ranged from 100 μM to 0.0000512 μM. Cells were then incubated at 37° C./5% CO2. Alternatively, compounds were tested at two concentrations (1 μM and 10 μM). […] After 72 hours of incubation, the inhibition of HCV replication was measured by quantification of photons emitted after mono-oxygenation of 5′-fluoroluciferin to oxyfluoroluciferin by firefly luciferase. For this, media was removed from the plates via gentle tapping. Fifty microliters of ONE-glo luciferase assay reagent was added to each well. The plates were shaken gently for 3 min at room temperature and luminescence was measured on a Victor^3 V 1420 multilabel counter (Perkin Elmer) with a 1 second read time using a 700 nm cut-off filter. The EC50 values were calculated from dose response curves from the resulting best-fit equations determined by Microsoft Excel and XLfit 4.1 software. When screening at two fixed concentrations, the results were expressed as % inhibition at 1 μM and 10 μM.

[3] = molecular target: T1, wild-type HCV genotype 1b NS5B protein (recombinant HCV polymerase) (Hepatitis C virus genotype 1b, UniProt Q9WMX2); experiment: HCV Polymerase Enzyme Assay, wild-type; type: biochemical
T1 construct: HCV genotype 1b NS5B protein were used to generate recombinant HCV polymerases (with a deletion of the 21 carboxy terminal amino acids); made in house
From the text: (§1) Test compounds in the form of nucleoside triphosphates were examined for inhibitory activity against purified HCV polymerase in a standard assay. Bacterial expression constructs encoding the approximately 65 kDa HCV genotype 1b NS5B protein were used to generate recombinant HCV polymerases (with a deletion of the 21 carboxy terminal amino acids). Both the wild-type genotype 1b protein and protein containing the S282T mutation were expressed and purified for use in the enzymatic activity assay.
(§2) The enzymatic activity assay measured the inhibitory effect of increasing concentrations of test compound on the incorporation of α-[^33P]-labeled nucleotide into trichloroacetic acid-precipitable material. Recombinant polymerase and synthetic RNA template were combined in reaction buffer containing ribonucleoside triphosphates, α-[^33P]-labeled nucleotide and eight concentrations of test compound in three-fold dilutions. Reactions were incubated for two hours at 30° C.
(§3) Reactions were terminated by the addition of ice-cold trichloroacetic acid and sodium pyrophosphate to promote precipitation of newly-synthesized ribonucleic acid. Precipitable material from the reactions was collected by filtration onto 96-well filter plates, washed extensively with water, and quantified by liquid scintillation.
(§4) The inhibitory activity of test compounds was determined by fitting results to dose-response curves using XLfit software.

[4] = molecular target: T2, HCV genotype 1b NS5B protein containing the S282T mutation (Hepatitis C virus genotype 1b, UniProt Q9WMX2, S2701T); experiment: HCV Polymerase Enzyme Assay, S282T mutant; type: biochemical
T2 construct: HCV genotype 1b NS5B protein were used to generate recombinant HCV polymerases (with a deletion of the 21 carboxy terminal amino acids); made in house
From the text: as §1, §2, §3, §4

Row | Structure (SMILES) | CC50 at 72 h [1] | EC50 [2] | IC50 [3] | IC50 [4]
1 | CO[C@]1(CO)O[C@@H](n2ccc(=O)[nH]c2=O)[C@H](F)[C@@H]1O [Compound 2b] | > 50 µM | > 10 µM | – | –
2 | CC(C)O[C@]1(CO)O[C@@H](n2ccc(=O)[nH]c2=O)[C@H](O)[C@@H]1O [Compound 7a] | > 50 µM | > 10 µM | – | –
3 | CO[C@]1(COP(=O)(O)OP(=O)(O)OP(=O)(O)O)O[C@@H](n2cnc3c(=O)[nH]c(N)nc32)[C@@H](N)[C@@H]1O [Compound 230] | – | – | 1 to 10 µM | –
4 | CC(C)O[C@]1(CO)O[C@@H](n2ccc(=O)[nH]c2=O)[C@H](F)[C@@H]1O [Compound 7b] | > 50 µM | > 10 µM | – | –
5 | CO[C@]1(CO)O[C@@H](n2ccc(N)nc2=O)[C@H](O)[C@@H]1O [Compound 5a2] | > 50 µM | > 10 µM | – | –
6 | CO[C@]1(COP(=O)(O)OP(=O)(O)OP(=O)(O)O)O[C@@H](n2ccc(=O)[nH]c2=O)[C@H](N)[C@@H]1O [Compound 233] | – | – | 1 to 10 µM | –
7 | CO[C@]1(COP(=O)(O)O)O[C@@H](n2ccc(=O)[nH]c2=O)[C@H](O)[C@@H]1O [Compound 18a] | – | – | > 10 µM | –
8 | CO[C@]1(COP(=O)(O)OP(=O)(O)OP(=O)(O)O)O[C@@H](n2ccc(=O)[nH]c2=O)[C@H](O)[C@@H]1N [Compound 9e] | – | – | > 10 µM | –
9 | CO[C@]1(COP(=O)(N[C@@H](C)C(=O)OC(C)C)OCCSC(=O)C(C)(C)C)O[C@@H](n2ccc(=O)[nH]c2=O)[C@H](O)[C@@H]1O (stereo partly drawn) [Compound 14a] | > 50 µM | > 10 µM | – | –
10 | CCO[C@]1(CO)O[C@@H](n2ccc(=O)[nH]c2=O)[C@H](O)[C@@H]1O [Compound 6a] | > 50 µM | > 10 µM | – | –
11 | CO[C@]1(CO)O[C@@H](n2ccc(=O)[nH]c2=O)[C@H](O)[C@@H]1N=[N+]=[N-] [Compound 2e] | > 50 µM | > 10 µM | – | –
12 | CO[C@]1(COP(=O)(O)OP(=O)(O)OP(=O)(O)O)O[C@@H](n2ccc(N)nc2=O)[C@H](O)[C@@H]1F [Compound 9g] | – | – | 0.25 to 1 µM | 0.25 to 1 µM
13 | CO[C@H]1[C@H](n2ccc(=O)[nH]c2=O)O[C@@](COP(=O)(O)OP(=O)(O)OP(=O)(O)O)(OC)[C@H]1O [Compound 224] | – | – | > 10 µM | –
14 | CO[C@]1(COP(=O)(N[C@H](C)C(=O)OC(C)C)Oc2ccccc2)O[C@@H](n2ccc(N)nc2=O)[C@H](O)[C@@H]1O (stereo partly drawn) [Compound 13a] | > 50 µM | > 10 µM | – | –
15 | CO[C@]1(COP(=O)(O)OP(=O)(O)OP(=O)(O)O)O[C@@H](n2cnc3c(=O)[nH]c(N)nc32)[C@@H](N=[N+]=[N-])[C@@H]1O [Compound 220] | – | – | 1 to 10 µM | –
16 | CO[C@]1(CO)O[C@@H](n2ccc(=O)[nH]c2=O)[C@H](N=[N+]=[N-])[C@@H]1O [Compound 23] | > 50 µM | > 10 µM | – | –
17 | CO[C@]1(COP(=O)(O)OP(=O)(O)OP(=O)(O)O)O[C@@H](n2ccc(=O)[nH]c2=O)[C@H](O)[C@@H]1O [Compound 9a] | – | – | 0.25 to 1 µM | 0.25 to 1 µM

Row | Structure (SMILES) | CC50 at 72 h [1] | EC50 [2] | IC50 [3] | IC50 [4]
18 | CO[C@]1(COP(=O)(O)OP(=O)(O)OP(=O)(O)O)O[C@@H](n2ccc(=O)[nH]c2=O)[C@H](F)[C@@H]1O [Compound 9b] | – | – | 1 to 10 µM | –
19 | CO[C@]1(COP(=O)(O)OP(=O)(O)OP(=O)(O)O)O[C@@H](n2cnc3c(=O)[nH]c(N)nc32)[C@H](F)[C@@H]1O [Compound 222] | – | – | < 0.25 µM | 0.25 to 1 µM
20 | CO[C@]1(CO)O[C@@H](n2cnc3c(=O)[nH]c(N)nc32)[C@H](N=[N+]=[N-])[C@@H]1O [Compound 21] | > 50 µM | > 10 µM | – | –
21 | CO[C@]1(CO)O[C@@H](n2ccc(=O)[nH]c2=O)[C@H](O)[C@@H]1O [Compound 2a] | > 50 µM | > 10 µM | – | –
22 | CO[C@]1(CO)O[C@@H](n2cnc3c(=O)[nH]c(N)nc32)[C@@H](N=[N+]=[N-])[C@@H]1O [Compound 20] | > 50 µM | > 10 µM | – | –
23 | CO[C@]1(COP(=O)(O)OP(=O)(O)O)O[C@@H](n2ccc(=O)[nH]c2=O)[C@H](O)[C@@H]1O [Compound 17a] | – | – | > 10 µM | –
24 | CO[C@@]1(CO)C[C@@H](O)[C@H](n2ccc(=O)[nH]c2=O)O1 [Compound 2d] | > 50 µM | > 10 µM | – | –
25 | CO[C@]1(CO)O[C@@H](n2ccc(N)nc2=O)[C@H](O)[C@@H]1F [Compound 5c] | > 50 µM | > 10 µM | – | –
26 | CO[C@]1(COP(=O)(O)OP(=O)(O)OP(=O)(O)O)O[C@@H](n2ccc(=O)[nH]c2=O)[C@H](N=[N+]=[N-])[C@@H]1O [Compound 223] | – | – | > 10 µM | –
27 | CO[C@]1(COP(=O)(O)OP(=O)(O)OP(=O)(O)O)O[C@@H](n2ccc(=O)[nH]c2=O)[C@H](O)[C@@H]1F [Compound 9c] | – | – | 0.25 to 1 µM | –
28 | CO[C@]1(COP(=O)(N[C@@H](C)C(=O)OC(C)C)OCCSC(=O)C(C)(C)C)O[C@@H](n2ccc(N)nc2=O)[C@H](O)[C@@H]1O (single isomer, unassigned) [Compound 16a] | > 50 µM | > 10 µM | – | –
29 | CO[C@H]1[C@H](n2ccc(=O)[nH]c2=O)O[C@@](CO)(OC)[C@H]1O [Compound 24] | > 50 µM | > 10 µM | – | –
30 | CO[C@@]1(COP(=O)(O)OP(=O)(O)OP(=O)(O)O)C[C@@H](O)[C@H](n2ccc(=O)[nH]c2=O)O1 [Compound 9d] | – | – | 1 to 10 µM | –
31 | C#CCO[C@]1(CO)O[C@@H](n2ccc(=O)[nH]c2=O)[C@H](O)[C@@H]1O [Compound 8a] | > 50 µM | > 10 µM | – | –
32 | CO[C@]1(CO)O[C@@H](n2ccc(=O)[nH]c2=O)[C@H](O)[C@@H]1F [Compound 2c] | > 50 µM | > 10 µM | – | –
33 | CO[C@]1(COP(=O)(O)OP(=O)(O)OP(=O)(O)O)O[C@@H](n2ccc(N)nc2=O)[C@H](O)[C@@H]1O [Compound 9f] | – | – | < 0.25 µM | 0.25 to 1 µM
34 | CO[C@]1(COP(=O)(N[C@H](C)C(=O)OC(C)C)Oc2ccccc2)O[C@@H](n2ccc(=O)[nH]c2=O)[C@H](N=[N+]=[N-])[C@@H]1O (stereo partly drawn) [Compound 123] | > 50 µM | > 10 µM | – | –

— patent US10683321B2, “4′-or nucleosides for the treatment of HCV” (IDENIX PHARMACEUTICALS LLC, priority 2013, dated 2020)
